Square brackets hold non-standard residues; d marks the D form. Peptide text beside a SMILES is read from it. * marks the point of attachment. Pro(cis-4-Ph) = O=C(O)[C@@H]1C[C@H](c2ccccc2)CN1; Phe(4-CF3) = N[C@@H](Cc1ccc(C(F)(F)F)cc1)C(=O)O; Pro(4R-Bn) = O=C(O)[C@@H]1C[C@@H](Cc2ccccc2)CN1; Trp(5-OH) = N[C@@H](Cc1c[nH]c2ccc(O)cc12)C(=O)O; Phe(4-CN) = N#Cc1ccc(C[C@H](N)C(=O)O)cc1; Phe(4-Cl) = N[C@@H](Cc1ccc(Cl)cc1)C(=O)O; Pro(cis-4-F) = O=C(O)[C@@H]1C[C@H](F)CN1; Tic(7-OH) = O=C(O)[C@@H]1Cc2ccc(O)cc2CN1; 2Nal = N[C@@H](Cc1ccc2ccccc2c1)C(=O)O; Thz(5,5-Me2) = CC1(C)SCN[C@@H]1C(=O)O; Hyp = O=C(O)[C@@H]1C[C@@H](O)CN1; Tic = O=C(O)[C@@H]1Cc2ccccc2CN1; Benzyl(4-Br) = Brc1ccc(C*)cc1; Pip = O=C(O)[C@@H]1CCCCN1; dPip = O=C(O)[C@H]1CCCCN1; Thz = O=C(O)[C@@H]1CSCN1; Ac5c = NC1(C(=O)O)CCCC1; Dab = NCC[C@H](N)C(=O)O; dAze = O=C(O)[C@H]1CCN1; Aib = CC(C)(N)C(=O)O; Bn = c1ccc(C*)cc1
Assays:
human CCR10 [1] = target: T1, human CCR10 (Homo sapiens, UniProt P46092); experiment: Calcium flux assay (CCR10 antagonism, CCL27 as agonist); assay type: cell-based; conditions: CCR10 transfected 300-19 murine pre-B cells; CCL27 30 nM
T1 construct: expressed in transfected cells
T1 sequence (P46092 1-362): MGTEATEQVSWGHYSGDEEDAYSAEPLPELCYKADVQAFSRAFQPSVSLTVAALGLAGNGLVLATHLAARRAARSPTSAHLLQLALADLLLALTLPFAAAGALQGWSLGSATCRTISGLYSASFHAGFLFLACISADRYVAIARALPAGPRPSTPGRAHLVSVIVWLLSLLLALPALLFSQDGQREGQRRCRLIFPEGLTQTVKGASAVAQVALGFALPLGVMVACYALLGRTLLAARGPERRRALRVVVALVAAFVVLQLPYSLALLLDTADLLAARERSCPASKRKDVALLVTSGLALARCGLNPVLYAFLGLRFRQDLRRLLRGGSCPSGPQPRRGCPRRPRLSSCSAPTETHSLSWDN
Procedure: (§1) Lyophilized peptides were weighed on a Microbalance (Mettler MX5) and dissolved in aqueous 90% DMSO to a final concentration of 10 mM unless otherwise stated. Stock solutions were kept at +4° C., and protected from light.
(§2) Peptides were assayed for CCR10 antagonism in a calcium flux assay and in a chemotaxis assay using a mouse pre-B cell line 300-19 stably transfected with human CCR10, and with human CCL27 as agonist.
The calcium flux release was assessed using CCR10 transfected 300-19 murine pre-B cells. These cells were labeled as a batch with Calcium4 Reagent (Molecular Devices, Sunnyvale, Calif.) in HBSS buffer for 60 min.
After dispensing 8×10^4 cells in each well of a 384-well black plate, a concentrated solution of the β-hairpin peptidomimetics of this invention in HBSS+0.1% BSA+0.1% DMSO (final concentration) was added to the cells. The entire plate was centrifuged and placed in a Flexstation II (Molecular Devices) automated plate reader. After reading a 20 s baseline, the Flexstation dispensed CCL27 (RnD systems) at a final concentration of 30 nM in HBSS+0.1% BSA onto the cells and calcium flux was measured for an additional 70 s.
Alternatively a FIipR384 (Molecular Devices) was used for read out of the 384-well plates. In this case about 8×10^4 cells were placed in each well, centrifuged, placed in the FlipR and after 5 s of baseline reading, the β-hairpin peptidomimetics in HBSS+0.1% BSA+0.1% DMSO (final concentration) were added. After an incubation time of 5 min, the CCL27 solution was added to the mixture and the calcium flux was measured for 200 s.
The maximum signal was determined from control wells without inhibitor. Percentage of inhibition was calculated from a range of compound concentrations, which were subsequently used to calculate IC50 values (Softmax Pro, Molecular Devices). All steps were carried out at room temperature.

human CCR10 [2] = target: T1, human CCR10; experiment: Chemotaxis assay (CCR10-transfected 300-19 cells, CCL27 gradient); assay type: cell-based; conditions: CCR10-transfected 300-19 murine pre-B cells; 30 nM CCL27 gradient
Procedure: as §1, §2
The chemotactic response of CCR10-transfected 300-19 murine pre-B cells to a gradient of CCL27 (CTACK) was measured using disposable Transwell® assay plates from Costar (5 μm pore size) according to the protocol of the manufacturer. Briefly, cells were grown under sterile conditions at 37° C. with 5% CO2 in flasks containing RPMI+5% FCS, glutamine, penicillin/streptomycin (all media components were from Life Technologies) and the appropriate selection antibiotics (Puromycin, G418 or Tetracycline). For the assay, cells were pelleted by centrifugation, washed once in Dulbecco's phosphate buffered saline (DPBS), and resuspended to give 1×10^6 cells/ml in RPMI+0.5% bovine serum albumin (BSA). 100 μl of cell suspension was applied to the top of the assay filter. The β-hairpin peptidomimetics, diluted in the same assay medium, were added to both top and bottom chambers. The cells were allowed to migrate for 4-6 hours at 37° C. into the bottom chamber of the assay plate containing 30 nM of CCL27 (RnD systems). Migrated cells were counted using a FACS cytometer (Cytomics FC500, Beckman Coulter). Data normalization was performed using the number of any cells that had migrated in the absence of the β-hairpin peptidomimetic and the number of cells that have randomly migrated in absence of CCL27 [these values were taken as 100% (no inhibitory activity) and 0%, respectively]. From a range of compound concentrations IC50 were determined using Prism5 (GraphPad software).

SMILES | IC50 (human CCR10 [1]) [nM] | IC50 (human CCR10 [2]) [nM]
CC1(C)NC(=O)[C@H](Cc2c[nH]c3ccccc23)NC(=O)[C@@H]2Cc3ccccc3CN2C(=O)[C@H]2CCCN2C(=O)[C@H](CCCNC(=N)N)NC(=O)[C@H](Cc2c[nH]c3ccccc23)NC1=O [Ex. 1, cyclo(-Trp-Aib-Trp-Arg-^DPro-Tic-)] (cyclo([Aib]WR[dP][Tic]W)) | 226 ± 187 | 94
CC1(C)NC(=O)[C@H](Cc2c[nH]c3ccccc23)NC(=O)[C@@H]2Cc3ccccc3CN2C(=O)[C@H]2CCCN2C(=O)[C@H](CCN)NC(=O)[C@H](Cc2c[nH]c3ccccc23)NC1=O [Ex. 2, cyclo(-Trp-Aib-Trp-Dab-^DPro-Tic-)] (cyclo([Aib]W[Dab][dP][Tic]W)) | 200 ± 56.5 | 21.6
N=C(N)NCCC[C@@H]1NC(=O)[C@H](Cc2c[nH]c3ccccc23)NC(=O)C2(CCCC2)NC(=O)[C@H](Cc2c[nH]c3ccccc23)NC(=O)[C@@H]2Cc3ccc(O)cc3CN2C(=O)[C@H]2CCCN2C1=O [Ex. 3, cyclo(-Trp-Cyp-Trp-Arg-^DPro-Tic(7OH)—)] (cyclo([Ac5c]WR[dP][Tic(7-OH)]W)) | 78.5 ± 38.6 | –
NCC[C@@H]1NC(=O)[C@H](Cc2c[nH]c3ccccc23)NC(=O)C2(CCCC2)NC(=O)[C@H](Cc2c[nH]c3ccccc23)NC(=O)[C@@H]2C[C@H](F)CN2C(=O)[C@H]2CCCN2C1=O [Ex. 4, cyclo(-Trp-Cyp-Trp-Dab-^DPro-Pro((4S)F)—)] (cyclo([Ac5c]W[Dab][dP][Pro(cis-4-F)]W)) | 860 ± 382 | 42
NC(=O)CC[C@@H]1NC(=O)[C@H](Cc2c[nH]c3ccccc23)NC(=O)C2(CCCC2)NC(=O)[C@H](Cc2c[nH]c3ccc(O)cc23)NC(=O)[C@@H]2CSCN2C(=O)[C@H]2CCCN2C1=O [Ex. 7, cyclo(-Trp(5OH)-Cyp-Trp-Gln-^DPro-Thz-)] (cyclo([Trp(5-OH)][Ac5c]WQ[dP][Thz])) | 144 ± 84.1 | 3.1
CC1(C)SCN2C(=O)[C@H]3CCCN3C(=O)[C@H](CCCNC(=N)N)NC(=O)[C@H](Cc3c[nH]c4ccccc34)NC(=O)C3(CCCC3)NC(=O)[C@H](Cc3c[nH]c4ccc(O)cc34)NC(=O)[C@@H]21 [Ex. 29, cyclo(-Trp(5OH)-Cyp-Trp-Arg-^DPro-Thz(5,5Me2)-)] (cyclo([Ac5c]WR[dP][Thz(5,5-Me2)][Trp(5-OH)])) | 214 ± 106 | 109
NCC[C@@H]1NC(=O)[C@H](Cc2c[nH]c3ccccc23)NC(=O)C2(CCCC2)NC(=O)[C@H](Cc2c[nH]c3ccccc23)NC(=O)[C@@H]2C[C@@H](O)CN2C(=O)[C@H]2CCCN2C1=O [Ex. 103, cyclo(-Trp-Cyp-Trp-Dab-^DPro-Hyp-)] (cyclo([Ac5c]W[Dab][dP][Hyp]W)) | 190 ± 89.8 | –

Compounds with a lower IC50 (human CCR10 [1]), results first:

IC50 (human CCR10 [1]) [nM] | IC50 (human CCR10 [2]) [nM] | SMILES
70.6 ± 20.1 | – | N=C(N)NCCC[C@@H]1NC(=O)[C@H](Cc2c[nH]c3ccccc23)NC(=O)C2(CCCC2)NC(=O)[C@H](Cc2c[nH]c3ccccc23)NC(=O)[C@@H]2CSCN2C(=O)[C@H]2CCCN2C1=O [Ex. 5, cyclo(-Trp-Cyp-Trp-Arg-DPro-Thz-)] (cyclo([Ac5c]WR[dP][Thz]W))
52.5 ± 3.5 | – | N=C(N)NCCC[C@@H]1NC(=O)[C@H](Cc2c[nH]c3ccccc23)NC(=O)C2(CCCC2)NC(=O)[C@H](Cc2c[nH]c3ccc(O)cc23)NC(=O)[C@@H]2Cc3ccccc3CN2C(=O)[C@H]2CCCN2C1=O [Ex. 8, cyclo(-Trp(5OH)-Cyp-Trp-Arg-^DPro-Tic-)] (cyclo([Ac5c]WR[dP][Tic][Trp(5-OH)]))
9.2 ± 3.6 | 2 | NC(=O)CC[C@@H]1NC(=O)[C@H](Cc2c[nH]c3ccccc23)NC(=O)C2(CCCC2)NC(=O)[C@H](Cc2ccc3ccccc3c2)NC(=O)[C@@H]2Cc3ccccc3CN2C(=O)[C@H]2CCCN2C1=O [Ex. 9, cyclo(-2NaI-Cyp-Trp-Gln-^DPro-Tic-)] (cyclo([2Nal][Ac5c]WQ[dP][Tic]))
43.2 ± 44.9 | 9.7 | NCC[C@@H]1NC(=O)[C@H](Cc2c[nH]c3ccccc23)NC(=O)C2(CCCC2)NC(=O)[C@H](Cc2ccc3ccccc3c2)NC(=O)[C@@H]2CCCCN2C(=O)[C@H]2CCCCN2C1=O [Ex. 10, cyclo(-2NaI-Cyp-Trp-Dab-^DPip-Pip-)] (cyclo([2Nal][Ac5c]W[Dab][dPip][Pip]))
70.4 ± 19.2 | – | N=C(N)NCCC[C@@H]1NC(=O)[C@H](Cc2c[nH]c3ccccc23)NC(=O)C2(CCCC2)NC(=O)[C@H](Cc2c[nH]c3ccccc23)NC(=O)[C@@H]2Cc3ccccc3CN2C(=O)[C@H]2CCN2C1=O [Ex. 25, cyclo(-Trp-Cyp-Trp-Arg-^DAze-Tic-)] (cyclo([Ac5c]WR[dAze][Tic]W))
57 ± 26.4 | – | NCC[C@@H]1NC(=O)[C@H](Cc2c[nH]c3ccccc23)NC(=O)C2(CCCC2)NC(=O)[C@H](Cc2c[nH]c3ccccc23)NC(=O)[C@@H]2Cc3ccccc3CN2C(=O)[C@H]2CCN2C1=O [Ex. 26, cyclo(-Trp-Cyp-Trp-Dab-^DAze-Tic-)] (cyclo([Ac5c]W[Dab][dAze][Tic]W))
14.8 ± 12 | 22 | NCC[C@@H]1NC(=O)[C@H](Cc2c[nH]c3ccccc23)NC(=O)C2(CCCC2)NC(=O)[C@H](Cc2ccc(C(F)(F)F)cc2)NC(=O)[C@@H]2C[C@H](c3ccccc3)CN2C(=O)[C@H]2CCCCN2C1=O [Ex. 37, cyclo(-Phe(4CF3)—Cyp-Trp-Dab-^DPip-Pro((4R)Ph)-)] (cyclo([Ac5c]W[Dab][dPip][Pro(cis-4-Ph)][Phe(4-CF3)]))
26.1 ± 8.1 | 2.3 | NCC[C@@H]1NC(=O)[C@H](Cc2c[nH]c3ccccc23)NC(=O)C2(CCCC2)NC(=O)[C@H](Cc2c[nH]c3ccccc23)NC(=O)[C@@H]2C[C@@H](Cc3ccccc3)CN2C(=O)[C@H]2CCCN2C1=O [Ex. 38, cyclo(-Trp-Cyp-Trp-Dab-^DPro-Pro((4R)Bn)-)] (cyclo([Ac5c]W[Dab][dP][Pro(4R-Bn)]W))
39.9 ± 34.8 | – | NCC[C@@H]1NC(=O)[C@H](Cc2ccc(Cl)cc2)NC(=O)C2(CCCC2)NC(=O)[C@H](Cc2c[nH]c3ccccc23)NC(=O)[C@@H]2C[C@@H](OCc3ccccc3)CN2C(=O)[C@H]2CCCN2C1=O [Ex. 43, cyclo(-Trp-Cyp-Phe(4Cl)-Dab-^DPro-Hyp(Bn)-)] (cyclo([Ac5c][Phe(4-Cl)][Dab][dP][Hyp](Bn)W))
22.6 ± 13.6 | – | NCC[C@@H]1NC(=O)[C@H](Cc2c[nH]c3ccccc23)NC(=O)C2(CCCC2)NC(=O)[C@H](Cc2ccc(C(F)(F)F)cc2)NC(=O)[C@@H]2C[C@@H](OCc3ccc(Br)cc3)CN2C(=O)[C@H]2CCCN2C1=O [Ex. 54, cyclo(-Phe(4CF3)-Cyp-Trp-Dab-^DPro-Hyp(4BrBn)-)] (cyclo([Ac5c]W[Dab][dP][Hyp](Benzyl(4-Br))[Phe(4-CF3)]))
21.7 ± 3.9 | – | N#Cc1ccc(C[C@@H]2NC(=O)[C@@H]3C[C@@H](OCc4ccccc4)CN3C(=O)[C@H]3CCCN3C(=O)[C@H](CCC(N)=O)NC(=O)[C@H](Cc3c[nH]c4ccccc34)NC(=O)C3(CCCC3)NC2=O)cc1 [compound 47, cyclo(-Phe(4CN)-Cyp-Trp-Gln-^DPro-Hyp(Bn)-)] (cyclo([Ac5c]WQ[dP][Hyp](Bn)[Phe(4-CN)]))

Reference: US8754038B2, “Template-fixed peptidomimetics with CCR10 antagonistic activity” (priority 2009, dated 2014)
